Experimental data as given in publication PMC12682947, “Identification of New KCNT1‐Epilepsy Drugs by In Silico, Cell, and Drosophila Modeling” (Annals of Neurology, 2025).
Where a name gives a salt, the structure may show the parent alone.

Biological target: T1, WT KCNT1 channels (Homo sapiens, UniProt Q5JUK3)
T1 construct: YFP-6His; expressed in transfected cells; host or cells: HEK293T
T1 sequence (Q5JUK3 1-1235 isoform Q5JUK3-3): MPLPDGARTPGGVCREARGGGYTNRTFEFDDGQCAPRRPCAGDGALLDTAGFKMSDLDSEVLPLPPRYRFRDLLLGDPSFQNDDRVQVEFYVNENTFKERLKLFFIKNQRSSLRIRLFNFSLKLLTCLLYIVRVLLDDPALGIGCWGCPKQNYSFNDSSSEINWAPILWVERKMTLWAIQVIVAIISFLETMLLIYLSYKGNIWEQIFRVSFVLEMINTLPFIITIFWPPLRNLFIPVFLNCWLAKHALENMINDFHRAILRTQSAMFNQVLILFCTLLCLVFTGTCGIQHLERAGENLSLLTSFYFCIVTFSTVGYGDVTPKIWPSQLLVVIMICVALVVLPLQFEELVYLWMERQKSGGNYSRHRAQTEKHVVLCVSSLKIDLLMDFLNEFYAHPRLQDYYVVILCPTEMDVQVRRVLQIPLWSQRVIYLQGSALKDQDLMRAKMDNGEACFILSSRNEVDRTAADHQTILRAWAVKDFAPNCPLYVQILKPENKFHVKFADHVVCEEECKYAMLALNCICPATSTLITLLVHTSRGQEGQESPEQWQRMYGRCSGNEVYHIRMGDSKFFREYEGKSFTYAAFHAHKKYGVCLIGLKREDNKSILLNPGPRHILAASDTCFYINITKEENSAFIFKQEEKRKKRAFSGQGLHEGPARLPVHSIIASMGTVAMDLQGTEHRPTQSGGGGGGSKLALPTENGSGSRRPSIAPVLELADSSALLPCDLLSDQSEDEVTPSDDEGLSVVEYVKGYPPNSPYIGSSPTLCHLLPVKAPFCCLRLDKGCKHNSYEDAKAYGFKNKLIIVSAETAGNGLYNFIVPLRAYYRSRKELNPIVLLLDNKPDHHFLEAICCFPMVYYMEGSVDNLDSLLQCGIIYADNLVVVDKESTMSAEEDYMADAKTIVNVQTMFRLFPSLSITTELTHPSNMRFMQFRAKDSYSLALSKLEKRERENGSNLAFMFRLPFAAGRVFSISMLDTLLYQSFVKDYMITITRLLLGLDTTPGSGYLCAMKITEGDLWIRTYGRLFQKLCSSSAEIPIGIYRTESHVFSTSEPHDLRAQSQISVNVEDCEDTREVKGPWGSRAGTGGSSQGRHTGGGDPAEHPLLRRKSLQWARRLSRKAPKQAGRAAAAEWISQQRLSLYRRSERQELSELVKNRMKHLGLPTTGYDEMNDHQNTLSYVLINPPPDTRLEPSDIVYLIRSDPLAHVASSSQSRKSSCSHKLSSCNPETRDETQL
Test: Inside-out patch clamp of HEK293T cells expressing WT KCNT1 channels
Format: cell-based
Conditions: inside-out patches; for inhibition at 0.05 µM: HEK-293T, 50 nM, read-out: inhibition of WT human KCNT1 channel activity; for IC50: WT, mean ± SEM
Protocol: The CHO cells were cultured in Dulbecco's modified Eagle's Medium (ThermoFisher, UK) supplemented with 10% (v/v) fetal bovine serum, 50 U/ml penicillin and 0.05 mg/ml streptomycin, and incubated at 37°C in 5% CO2 atmosphere. For whole cell recording of WT/Y796H KCNT1, CHO cells were transiently co‐transfected with concatemeric WT/Y796H and EYFP, as described previously.[29] For electrophysiological experiments, cells were plated onto borosilicate glass cover slips and used 2 to 4 days later. Human embryonic kidney 293T cells (HEK293T) were cultured in the same manner, but with medium supplemented with 2 mM L‐glutamine, and 1% (v/v) nonessential amino acids. For excised inside‐out recording of homomeric WT or mutant YFP‐tagged KCNT1, HEK293T cells plated on glass cover slips were transfected using Attractene Transfection Reagent (Qiagen, Germany) according to the manufacturer's instructions and used 2 to 3 days later.
Inside‐out patch clamp recordings were made at room temperature (23°C) from transiently transfected HEK293T cells, as described previously.[11] The pipette solution contained, in mM, 140 NaCl, 4 KCl, 2 CaCl2, 2 MgCl2, and 10 HEPES adjusted to pH 7.4 with NaOH. After achieving the inside‐out configuration, the intracellular face of the membrane was constantly perfused with a solution containing, in mM, 35 NaCl, 110 KCl, 0.2 EGTA, and 10 HEPES adjusted to pH 7.3 with KOH. Drug stock solutions of 5 to 20 mM in DMSO were first diluted in ethanol (1:10) and then in electrophysiological solution. KCNT1 currents were recorded using 2 voltage protocols, depending on the number of active channels in the patch before drug application. Macroscopic currents (number of active channels > 15) were recorded in response to 100 ms voltage ramps between −120 and 120 mV applied every 2 seconds from a holding potential of −78 mV. The average current amplitudes between 0 and 40 mV were used for the analyses and constructing the concentration‐response curves. With a lower number of active channels in the patch (3–15), current traces were recorded in response to 15‐second voltage steps to −20, 0, and 20 mV from a holding potential of −78 mV. Currents recorded at each voltage and each drug concentration were averaged over the duration of the trace and normalized to the average amplitudes of the corresponding current traces in drug‐free solution. The normalized data for all 3 voltage steps were then averaged for each drug concentration and used to build the concentration‐response curves (see Supplementary Fig S3). To determine the IC50, data were fitted with the Hill equation, as described previously.[11] Single channel data were analyzed using Ana software developed by Dr Michael Pusch (Istituto di Biofisica, Genova, Italy; http://users.ge.ibf.cnr.it/pusch/programs-mik.htm). In patch clamp data “n” represents number of cells, and all experiments were repeated using cells from a minimum of 2 separate transfections.

Structure (SMILES): O=C(OCCN1CCN(c2cccc(C(F)(F)F)c2)CC1)c1ccccc1Nc1ccnc2cc(C(F)(F)F)ccc12 [antrafenine]
- inhibition at 0.05 µM: > 60%
- IC50: 12.6 ± 3.6 nM

Structure (SMILES): CC(C)c1c(C(=O)Nc2ccccc2)c(-c2ccccc2)c(-c2ccc(F)cc2)n1CC[C@@H](O)C[C@@H](O)CC(=O)O [atorvastatin]
- inhibition of KCNT1 activity at 10 μM (in words): not fully inhibiting
- IC50: 1900 ± 600 nM

Structure (SMILES): Cc1c(O)cccc1C(=O)N[C@@H](CSc1ccccc1)[C@H](O)CN1C[C@H]2CCCC[C@H]2C[C@H]1C(=O)NC(C)(C)C [nelfinavir mesylate]
- inhibition at 0.05 µM: > 60%
- IC50: 14.3 ± 2.6 nM

Structure (SMILES): CNC(=O)c1cc(Oc2ccc(NC(=O)Nc3ccc(Cl)c(C(F)(F)F)c3)c(F)c2)ccn1 [regorafenib]
- inhibition of KCNT1 activity at 10 μM (in words): not fully inhibiting
